# Laboratory results taken from PubChem BioAssay (NCI).
#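 Following 48 hours of exposure in 96-well plates, responses at five concentrations were used to interpolate endpoints linearly. TGI denotes the concentration required for complete inhibition of growth.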
# Legend:
# Test in all cases: growth of human tumour cells (NCI), 48 h
# NCI-H23 lung = system: NCI-H23 lung
# MDA-N = system: MDA-N
# K-562 leukemia = system: K-562 leukemia
# SNB-75 CNS = system: SNB-75 CNS
# TK-10 renal = system: TK-10 renal
# MOLT-4 leukemia = system: MOLT-4 leukemia
# MCF7 breast = system: MCF7 breast
# OVCAR-8 ovarian = system: OVCAR-8 ovarian
# NCI-H460 lung = system: NCI-H460 lung
# T-47D breast = system: T-47D breast
# HCC-2998 colon = system: HCC-2998 colon
# SF-539 CNS = system: SF-539 CNS
# NCI/ADR-RES ovarian = system: NCI/ADR-RES ovarian
# MDA-MB-435 = system: MDA-MB-435
# HT29 colon = system: HT29 colon
# OVCAR-5 ovarian = system: OVCAR-5 ovarian
# M14 melanoma = system: M14 melanoma
# A498 renal = system: A498 renal
# NCI-H226 lung = system: NCI-H226 lung
# SK-MEL-5 melanoma = system: SK-MEL-5 melanoma
# A549 NSCLC = system: A549 NSCLC
# LOX IMVI melanoma = system: LOX IMVI melanoma
# MDA-MB-231 breast = system: MDA-MB-231 breast
# HL-60(TB) leukemia = system: HL-60(TB) leukemia
# CAKI-1 renal = system: CAKI-1 renal
# UACC-62 melanoma = system: UACC-62 melanoma
# HS 578T breast = system: HS 578T breast
# SW-620 colon = system: SW-620 colon
# SK-MEL-2 melanoma = system: SK-MEL-2 melanoma
# PC-3 prostate = system: PC-3 prostate
# CCRF-CEM leukemia = system: CCRF-CEM leukemia
# RXF 393 renal = system: RXF 393 renal
# HCT-116 colon = system: HCT-116 colon
# SF-295 CNS = system: SF-295 CNS
# UACC-257 melanoma = system: UACC-257 melanoma
# BT-549 breast = system: BT-549 breast
# SR leukemia = system: SR leukemia
# HOP-92 NSCLC = system: HOP-92 NSCLC
# DU-145 prostate = system: DU-145 prostate
# OVCAR-4 ovarian = system: OVCAR-4 ovarian
# EKVX NSCLC = system: EKVX NSCLC
# SN12C renal = system: SN12C renal
# UO-31 renal = system: UO-31 renal
# COLO 205 colon = system: COLO 205 colon
# RPMI-8226 leukemia = system: RPMI-8226 leukemia
# KM12 colon = system: KM12 colon
# 786-0 renal = system: 786-0 renal
# SF-268 CNS = system: SF-268 CNS
# OVCAR-3 ovarian = system: OVCAR-3 ovarian
# IGROV1 ovarian = system: IGROV1 ovarian
# HOP-62 NSCLC = system: HOP-62 NSCLC
# NCI-H522 lung = system: NCI-H522 lung
# ACHN renal = system: ACHN renal
# SNB-19 CNS = system: SNB-19 CNS
# SK-MEL-28 melanoma = system: SK-MEL-28 melanoma
# U251 CNS = system: U251 CNS
# MALME-3M melanoma = system: MALME-3M melanoma
# HCT-15 colon = system: HCT-15 colon
# SK-OV-3 ovarian = system: SK-OV-3 ovarian
compound,measurement,setting,value
Cc1ccnc2c1ccc1nc3ccccc3n12,TGI,NCI-H23 lung,> 100 µM
same,TGI,MDA-N,> 100 µM
same,TGI,K-562 leukemia,> 100 µM
same,TGI,SNB-75 CNS,> 100 µM
same,TGI,TK-10 renal,> 100 µM
same,TGI,MOLT-4 leukemia,> 100 µM
same,TGI,MCF7 breast,> 100 µM
same,TGI,OVCAR-8 ovarian,92.4 µM
same,TGI,NCI-H460 lung,> 100 µM
same,TGI,T-47D breast,> 100 µM
same,TGI,HCC-2998 colon,> 100 µM
same,TGI,SF-539 CNS,> 100 µM
same,TGI,NCI/ADR-RES ovarian,> 100 µM
same,TGI,MDA-MB-435,> 100 µM
same,TGI,HT29 colon,> 100 µM
same,TGI,OVCAR-5 ovarian,> 100 µM
same,TGI,M14 melanoma,> 100 µM
same,TGI,A498 renal,> 100 µM
same,TGI,NCI-H226 lung,> 100 µM
same,TGI,SK-MEL-5 melanoma,93.1 µM
same,TGI,A549 NSCLC,> 100 µM
same,TGI,LOX IMVI melanoma,> 100 µM
same,TGI,MDA-MB-231 breast,> 100 µM
same,TGI,HL-60(TB) leukemia,> 100 µM
same,TGI,CAKI-1 renal,> 100 µM
same,TGI,UACC-62 melanoma,> 100 µM
same,TGI,HS 578T breast,> 100 µM
same,TGI,SW-620 colon,> 100 µM
same,TGI,SK-MEL-2 melanoma,> 100 µM
same,TGI,PC-3 prostate,> 100 µM
same,TGI,CCRF-CEM leukemia,> 100 µM
same,TGI,RXF 393 renal,> 100 µM
same,TGI,HCT-116 colon,> 100 µM
same,TGI,SF-295 CNS,> 100 µM
same,TGI,UACC-257 melanoma,> 100 µM
same,TGI,BT-549 breast,> 100 µM
same,TGI,SR leukemia,> 100 µM
same,TGI,HOP-92 NSCLC,> 100 µM
same,TGI,DU-145 prostate,> 100 µM
same,TGI,OVCAR-4 ovarian,> 100 µM
same,TGI,EKVX NSCLC,> 100 µM
same,TGI,SN12C renal,> 100 µM
same,TGI,UO-31 renal,> 100 µM
same,TGI,COLO 205 colon,> 100 µM
same,TGI,RPMI-8226 leukemia,> 100 µM
same,TGI,KM12 colon,> 100 µM
same,TGI,786-0 renal,> 100 µM
same,TGI,SF-268 CNS,99.6 µM
same,TGI,OVCAR-3 ovarian,> 100 µM
same,TGI,IGROV1 ovarian,> 100 µM
same,TGI,HOP-62 NSCLC,> 100 µM
same,TGI,NCI-H522 lung,44.5 µM
COC(=O)C(Cc1c[nH]c2ccccc12)NP(=O)(O)OCC1OC(n2cc(F)c(=O)[nH]c2=O)CC1O (stereo not drawn),TGI,NCI-H23 lung,> 100 µM
same,TGI,MDA-N,> 100 µM
same,TGI,K-562 leukemia,> 100 µM
same,TGI,SNB-75 CNS,> 100 µM
same,TGI,TK-10 renal,> 100 µM
same,TGI,MOLT-4 leukemia,> 100 µM
same,TGI,ACHN renal,> 100 µM
same,TGI,SNB-19 CNS,> 100 µM
same,TGI,MCF7 breast,> 100 µM
same,TGI,OVCAR-8 ovarian,> 100 µM
same,TGI,NCI-H460 lung,> 100 µM
same,TGI,T-47D breast,> 100 µM
same,TGI,HCC-2998 colon,> 100 µM
same,TGI,SF-539 CNS,> 100 µM
same,TGI,NCI/ADR-RES ovarian,> 100 µM
same,TGI,MDA-MB-435,> 100 µM
same,TGI,HT29 colon,> 100 µM
same,TGI,OVCAR-5 ovarian,> 100 µM
same,TGI,M14 melanoma,> 100 µM
same,TGI,A498 renal,> 100 µM
same,TGI,NCI-H226 lung,> 100 µM
same,TGI,SK-MEL-5 melanoma,> 100 µM
same,TGI,A549 NSCLC,> 100 µM
same,TGI,LOX IMVI melanoma,> 100 µM
same,TGI,SK-MEL-28 melanoma,> 100 µM
same,TGI,MDA-MB-231 breast,> 100 µM
same,TGI,HL-60(TB) leukemia,> 100 µM
same,TGI,UACC-62 melanoma,> 100 µM
same,TGI,HS 578T breast,> 100 µM
same,TGI,SW-620 colon,> 100 µM
same,TGI,U251 CNS,> 100 µM
same,TGI,SK-MEL-2 melanoma,> 100 µM
same,TGI,PC-3 prostate,> 100 µM
same,TGI,CCRF-CEM leukemia,> 59.1 µM
same,TGI,RXF 393 renal,> 100 µM
same,TGI,HCT-116 colon,> 100 µM
same,TGI,SF-295 CNS,> 100 µM
same,TGI,UACC-257 melanoma,> 100 µM
same,TGI,BT-549 breast,> 100 µM
same,TGI,SR leukemia,> 51.9 µM
same,TGI,HOP-92 NSCLC,> 100 µM
same,TGI,DU-145 prostate,> 100 µM
same,TGI,OVCAR-4 ovarian,> 100 µM
same,TGI,EKVX NSCLC,> 100 µM
same,TGI,SN12C renal,> 100 µM
same,TGI,UO-31 renal,> 100 µM
same,TGI,COLO 205 colon,> 100 µM
same,TGI,RPMI-8226 leukemia,> 100 µM
same,TGI,KM12 colon,> 100 µM
same,TGI,MALME-3M melanoma,> 100 µM
same,TGI,HCT-15 colon,> 100 µM
same,TGI,786-0 renal,> 100 µM
same,TGI,SF-268 CNS,> 100 µM
same,TGI,OVCAR-3 ovarian,> 100 µM
same,TGI,IGROV1 ovarian,> 100 µM
same,TGI,HOP-62 NSCLC,> 100 µM
same,TGI,NCI-H522 lung,> 100 µM
same,TGI,SK-OV-3 ovarian,> 100 µM
COC1/C=C\OC2(C)Oc3c(C)c(O)c4c(O)c(c(CN(C)C)c(O)c4c3C2=O)NC(=O)/C(C)=C\C=C/C(C)C(O)C(C)C(O)C(C)C(OC(C)=O)C1C (stereo not drawn),TGI,NCI-H23 lung,31.3 µM
same,TGI,MDA-N,> 100 µM
same,TGI,K-562 leukemia,85.2 µM
same,TGI,SNB-75 CNS,> 100 µM
same,TGI,TK-10 renal,> 100 µM
same,TGI,MOLT-4 leukemia,38.9 µM
same,TGI,ACHN renal,> 100 µM
same,TGI,SNB-19 CNS,> 100 µM
same,TGI,MCF7 breast,34.8 µM
same,TGI,OVCAR-8 ovarian,> 100 µM
same,TGI,NCI-H460 lung,> 100 µM
same,TGI,T-47D breast,> 100 µM
same,TGI,HCC-2998 colon,55.8 µM
same,TGI,SF-539 CNS,45.5 µM
same,TGI,NCI/ADR-RES ovarian,> 100 µM
same,TGI,MDA-MB-435,78.6 µM
same,TGI,HT29 colon,54.4 µM
same,TGI,OVCAR-5 ovarian,> 100 µM
same,TGI,M14 melanoma,42.1 µM
same,TGI,A498 renal,> 100 µM
same,TGI,NCI-H226 lung,> 100 µM
same,TGI,SK-MEL-5 melanoma,36.8 µM
same,TGI,A549 NSCLC,> 100 µM
same,TGI,LOX IMVI melanoma,35 µM
same,TGI,SK-MEL-28 melanoma,97.5 µM
same,TGI,MDA-MB-231 breast,92.8 µM
same,TGI,HL-60(TB) leukemia,50.8 µM
same,TGI,CAKI-1 renal,> 100 µM
same,TGI,UACC-62 melanoma,41.2 µM
same,TGI,HS 578T breast,> 100 µM
same,TGI,SW-620 colon,75.6 µM
same,TGI,U251 CNS,42.6 µM
same,TGI,SK-MEL-2 melanoma,42.5 µM
same,TGI,PC-3 prostate,72 µM
same,TGI,RXF 393 renal,> 100 µM
same,TGI,HCT-116 colon,37.9 µM
same,TGI,SF-295 CNS,> 100 µM
same,TGI,UACC-257 melanoma,60.9 µM
same,TGI,BT-549 breast,> 100 µM
same,TGI,SR leukemia,43.1 µM
same,TGI,HOP-92 NSCLC,> 100 µM
same,TGI,DU-145 prostate,> 100 µM
same,TGI,OVCAR-4 ovarian,> 100 µM
same,TGI,EKVX NSCLC,61.4 µM
same,TGI,SN12C renal,83.8 µM
same,TGI,UO-31 renal,> 100 µM
same,TGI,COLO 205 colon,35.4 µM
same,TGI,RPMI-8226 leukemia,40 µM
same,TGI,KM12 colon,99.6 µM
same,TGI,MALME-3M melanoma,39.3 µM
same,TGI,HCT-15 colon,> 100 µM
same,TGI,786-0 renal,> 100 µM
same,TGI,SF-268 CNS,> 100 µM
same,TGI,OVCAR-3 ovarian,> 100 µM
same,TGI,IGROV1 ovarian,> 100 µM
same,TGI,HOP-62 NSCLC,> 100 µM
same,TGI,NCI-H522 lung,32.1 µM
same,TGI,SK-OV-3 ovarian,> 100 µM
